Laboratory results published in ChEMBL document CHEMBL1201862, “PubChem BioAssay data set” (2004).
Values joined by “and” are separate entries in the source; they are usually repeats but may differ in a detail not shown here. Equal values may be shown once. Active and inactive are the calls of the source.

Key:
[1] = miR-122 activators in hepatoma reporter cells, dose response, cell-based, Huh7 psiCHECK-miR122, Renilla luciferase, cherry-picked (AID 651956); format: functional;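 also: huh7 hepatoma cells stably carrying a psiCHECK-2 miR-122 sensor plasmid; renilla luciferase signal reporting endogenous miR-122 activity after 48 h compound exposure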
[2] = HEK293T cytotoxicity, dose response, cytotoxicity control for miR-122 modulator project, cell-based, inhibitor set, cherry-pick, set 2 (AID 720697); format: functional
[3] = A549 cell cytotoxicity, dose response, cytotoxicity control, 24 h, CellTiter-Glo luminescence, cherry-picks (AID 1053115); format: functional, cell-based; conditions: A549, 24 h
[4] = HEK293T cytotoxicity, dose response, cytotoxicity control for miR-122 modulator project, cell-based, activator set, cherry-pick (AID 720690); format: functional;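 also: HEK293T human cells scored for general mammalian cytotoxicity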
[5] = HEK293 cell cytotoxicity, dose response, cytotoxicity control, cherry-picks, set 5 (AID 1053117); format: functional, cell-based
[6] = inhibitors of fibronectin matrix deposition, dose response, AH1F cells, Alexa488-FN fluorescence, cherry-picks (AID 1035475); format: functional, cell-based
[7] = biological target: Metabotropic glutamate receptor 3 (Rattus norvegicus, UniProt P31422); assay: mGlu3 negative allosteric modulator potency, dose response, HEK/GIRK cells, thallium flux, rat (AID 651839); format: functional
[8] = inhibitors of non-replicating M. tuberculosis, dose response, luciferase, dry powder (AID 651620); format: functional; conditions: Mycobacterium tuberculosis
[9] = inhibitors of non-replicating M. tuberculosis, dose response, luciferase, dry powder (AID 651619); format: functional; conditions: Mycobacterium tuberculosis
[10] = CEM21 cell cytotoxicity, dose response, cytotoxicity control, plate reader, dry powder (AID 687026); format: functional, cell-based
[11] = HIV Env cell-cell fusion inhibitors, dose response, HIV entry, plate reader, dry powder (AID 687023); format: functional, cell-based
[12] = T. cruzi growth inhibition in host cells, dose response, cell-based, plate reader, dry powder, set 2 (AID 652275); format: functional
[13] = T. cruzi intracellular amastigote growth inhibition, dose response, imaging, CA-I/72 strain, bovine embryo skeletal muscle, dry powder (AID 651885); format: functional, cell-based
[14] = growth inhibition of intracellular T. cruzi, dose response, cell-based, plate reader, dry powder samples (AID 651845); format: functional
[15] = biological target: Metabotropic glutamate receptor 7 (Homo sapiens, UniProt Q14831); assay: mGlu7 positive allosteric modulators, dose response, cell-based, calcium mobilization, Galpha15 (AID 743384); format: functional
Metabotropic glutamate receptor 7, sequence (Q14831 whole entry): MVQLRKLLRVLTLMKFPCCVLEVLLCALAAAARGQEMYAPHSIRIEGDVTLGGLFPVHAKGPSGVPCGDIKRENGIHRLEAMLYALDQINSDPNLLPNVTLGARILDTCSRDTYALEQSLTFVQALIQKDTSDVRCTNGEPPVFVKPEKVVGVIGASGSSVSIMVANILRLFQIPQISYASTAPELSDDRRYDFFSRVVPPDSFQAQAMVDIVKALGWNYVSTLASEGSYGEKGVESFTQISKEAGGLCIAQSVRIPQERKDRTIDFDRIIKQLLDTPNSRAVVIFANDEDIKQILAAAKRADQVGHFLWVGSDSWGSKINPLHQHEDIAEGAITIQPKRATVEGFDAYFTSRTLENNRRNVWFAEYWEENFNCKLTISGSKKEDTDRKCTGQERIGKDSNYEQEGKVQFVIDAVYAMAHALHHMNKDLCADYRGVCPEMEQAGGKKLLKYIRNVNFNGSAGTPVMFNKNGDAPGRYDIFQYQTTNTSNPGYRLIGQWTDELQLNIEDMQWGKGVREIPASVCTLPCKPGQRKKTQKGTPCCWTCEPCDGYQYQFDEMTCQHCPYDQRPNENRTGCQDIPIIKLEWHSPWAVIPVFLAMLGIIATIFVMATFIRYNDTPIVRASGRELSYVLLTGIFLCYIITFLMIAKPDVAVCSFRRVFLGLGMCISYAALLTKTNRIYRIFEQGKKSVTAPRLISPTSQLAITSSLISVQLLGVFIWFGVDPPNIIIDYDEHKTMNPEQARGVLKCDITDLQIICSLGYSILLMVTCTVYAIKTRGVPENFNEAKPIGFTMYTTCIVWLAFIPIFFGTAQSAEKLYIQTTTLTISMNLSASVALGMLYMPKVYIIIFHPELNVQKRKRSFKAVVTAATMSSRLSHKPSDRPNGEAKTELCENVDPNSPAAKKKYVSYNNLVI

Metabotropic glutamate receptor 3, sequence (P31422 whole entry): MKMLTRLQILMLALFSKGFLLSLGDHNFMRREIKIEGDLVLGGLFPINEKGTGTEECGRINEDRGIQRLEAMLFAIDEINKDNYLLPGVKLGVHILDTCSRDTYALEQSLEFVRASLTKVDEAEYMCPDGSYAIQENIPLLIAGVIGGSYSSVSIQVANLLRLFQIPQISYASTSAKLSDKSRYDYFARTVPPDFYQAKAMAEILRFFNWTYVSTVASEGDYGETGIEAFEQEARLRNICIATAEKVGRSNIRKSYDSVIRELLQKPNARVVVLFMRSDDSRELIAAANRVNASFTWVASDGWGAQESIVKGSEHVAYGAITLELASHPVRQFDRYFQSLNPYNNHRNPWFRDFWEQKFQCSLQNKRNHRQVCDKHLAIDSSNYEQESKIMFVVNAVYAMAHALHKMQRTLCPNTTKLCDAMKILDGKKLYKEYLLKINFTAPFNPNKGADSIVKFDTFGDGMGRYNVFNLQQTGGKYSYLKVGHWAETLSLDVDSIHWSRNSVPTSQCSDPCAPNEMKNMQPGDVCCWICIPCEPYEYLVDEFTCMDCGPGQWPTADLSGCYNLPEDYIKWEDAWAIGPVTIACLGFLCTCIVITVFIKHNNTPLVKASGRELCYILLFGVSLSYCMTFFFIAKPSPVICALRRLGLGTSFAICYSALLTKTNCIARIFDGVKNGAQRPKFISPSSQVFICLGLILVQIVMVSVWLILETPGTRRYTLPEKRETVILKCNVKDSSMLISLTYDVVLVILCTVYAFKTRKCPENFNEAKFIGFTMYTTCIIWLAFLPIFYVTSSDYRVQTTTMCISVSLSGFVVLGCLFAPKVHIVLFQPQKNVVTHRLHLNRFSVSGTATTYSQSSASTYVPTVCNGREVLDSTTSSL

C[C@H](CO)N1C[C@H](C)[C@H](CN(C)Cc2ccc(-c3ccccc3)cc2)Oc2cc(C#C[C@@H](C)O)ccc2S1(=O)=O
AC50 [1]: 37.3 µM (active)
AC50 [2]: 2.82 µM (active)
AC50 [3]: 50.9 µM (active)
AC50 [4]: 12.3 µM (active)

C[C@H]1CN([C@@H](C)CO)C(=O)c2cc(NC(=O)C3CCCCC3)ccc2O[C@@H]1CN(C)Cc1ccc(-c2ccccc2)cc1
AC50 [5]: 51.3 µM (active)
AC50 [6]: > 70 µM (inactive)

COc1ccc(-c2ccc3cc(C(=O)N4CCCC(CO)C4)ccc3c2)cc1OC (stereo not given)
IC50 [7]: 2.61 µM

[N-]=[N+]=NCCOCCNC(=O)CCCOc1ccc(C[S+]([O-])c2nnc(-c3ccc(F)cc3)o2)nc1 (stereo not given)
IC90 [8]: 8 µM (active)
IC90 [9]: 8 µM (active)

CCOc1ccc(S(=O)(=O)NCc2ccccc2)cc1
AC50 [10]: > 70 µM (inactive)
AC50 [11]: 66.7 µM (active) and > 70 µM (inactive)

CC(C)N1C[C@@H](C)[C@H](CN(C)Cc2cccc(Oc3ccccc3)c2)Oc2c(NC(=O)c3ccncc3)cccc2C1=O
AC50 [12]: 0.075 nM (active)
IC50 [13]: 1.5 µM (inconclusive)
AC50 [14]: 0.00713 µM (active)

COC(=O)c1ccc(-n2c(C)cc(C(=O)CSCc3cccc(C)c3)c2C)cc1
EC50 [15]: 10 µM (active)
